Source: PubChem BioAssay AID182 (DTP/NCI, 2004)
“And” between values parts separate entries of the source, which are not always exact repeats. Equal values may be shown once. Inconclusive results and toxic doses are left out.

Test system: BDF1 mice, P388/ADR leukemia ip, median survival T/C
Assay: NCI In Vivo Anticancer Drug Screen. Data for tumor model P388 Leukemia resistant to Adriamycin; NSC 123127, Developed at Scr 06 and 41 (intraperitoneal) in B6D2F1 (BDF1) mice
Details: endpoint: median survival time, higher = longer survival
Protocol: The antitumor activity of compounds was measured in mice bearing transplantable tumors. Survival or tumor size were measured and the results are expressed as the measurement made in the treated group (T) divided by the measurement made in the vehicle treated control group (C). The tumor model used in this assay is P388 Leukemia resistant to Adriamycin; NSC 123127, Developed at Scr 06 and 41 (intraperitoneal) in B6D2F1 (BDF1) mice

[1] = dose: 1.73 mg/kg/injection, schedule: Q04DX003 (ip), vehicle: water
[2] = dose: 2.88 mg/kg/injection, schedule: Q04DX003 (ip), vehicle: water
[3] = dose: 4.8 mg/kg/injection, schedule: Q04DX003 (ip), vehicle: water
[4] = dose: 0.72 mg/kg/injection, schedule: Q04DX003 (ip), vehicle: saline
[5] = dose: 173.0 micrograms/kg/injection, schedule: Q01DX009 (ip), vehicle: saline
[6] = dose: 288.0 micrograms/kg/injection, schedule: Q01DX009 (ip), vehicle: saline
[7] = dose: 480.0 micrograms/kg/injection, schedule: Q01DX009 (ip), vehicle: saline

In the case of `CCC1(O)CC(OC2CC(N(C)C)C(OC3CC(O)C(OC4CCC(=O)C(C)O4)C(C)O3)C(C)O2)c2c(cc3c(c2O)C(=O)c2c(O)ccc(O)c2C3=O)C1C(=O)OC` (stereo not given), the T/C [1] is reported as 105 % of control, the T/C [2] is reported as 107 % of control and the T/C [3] is reported as 119 % of control.

In the case of `CCC1=C(C[C@H]2NCCc3cc(OC)c(OC)cc32)C[C@H]2c3cc(OC)c(OC)cc3CCN2C1`, the T/C (dose: 10.8 mg/kg/injection, schedule: Q04DX003 (ip), vehicle: saline) is reported as 108 % of control, the T/C (dose: 18.0 mg/kg/injection, schedule: Q04DX003 (ip), vehicle: saline) is reported as 96 % of control and the T/C (dose: 30.0 mg/kg/injection, schedule: Q04DX003 (ip), vehicle: saline) is reported as 107 % of control.

In the case of `CSCS(=O)C[C@H](CO)NC(=O)/C=C/c1c(C)[nH]c(=O)[nH]c1=O` (stereo not given in full), the T/C [4] is reported as 88 % of control, the T/C (dose: 0.86 mg/kg/injection, schedule: Q04DX003 (ip), vehicle: saline) is reported as 100 % of control and the T/C (dose: 1.2 mg/kg/injection, schedule: Q04DX003 (ip), vehicle: saline) is reported as 86 % of control. The T/C (dose: 1.44 mg/kg/injection, schedule: Q04DX003 (ip), vehicle: saline) was 114 % of control, the T/C (dose: 2.0 mg/kg/injection, schedule: Q04DX003 (ip), vehicle: saline) was 86 % of control and the T/C (dose: 2.4 mg/kg/injection, schedule: Q04DX003 (ip), vehicle: saline) was 119 % of control. For the same compound, the T/C [5] was 99 % of control, the T/C [6] was 99 % of control and the T/C [7] was 95 % of control.

For `NC(CSC(c1ccccc1)(c1ccccc1)c1ccccc1)C(=O)O` (stereo not given), the T/C (dose: 24.0 mg/kg/injection, schedule: Q01DX009 (ip), vehicle: other) was 100 % of control and the T/C (dose: 40.0 mg/kg/injection, schedule: Q01DX009 (ip), vehicle: other) was 106 % of control.

In the case of `COC(=O)[C@@H]1c2cc3c(c(O)c2[C@@H](OC2OC(C)C(OC)C(C)(OC)C2OC)C[C@]1(C)O)C(=O)c1c(O)cc2c(c1C3=O)O[C@H]1O[C@]2(C)[C@H](O)[C@@H](N(C)C)[C@@H]1O` (stereo not given in full), the T/C (dose: 0.65 mg/kg/injection, schedule: Q04DX003 (ip), vehicle: water) is reported as 89 % of control, the T/C (dose: 1.08 mg/kg/injection, schedule: Q04DX003 (ip), vehicle: water) is reported as 96 % of control and the T/C (dose: 1.3 mg/kg/injection, schedule: Q04DX003 (ip), vehicle: water) is reported as 103 % of control. The T/C (dose: 1.8 mg/kg/injection, schedule: Q04DX003 (ip), vehicle: water) was 96 % of control and the T/C (dose: 2.16 mg/kg/injection, schedule: Q04DX003 (ip), vehicle: water) was 91 % of control.

With `Nc1nncs1` the T/C (dose: 173.0 mg/kg/injection, schedule: Q04DX003 (ip), vehicle: other) was 199 % of control and the T/C (dose: 288.0 mg/kg/injection, schedule: Q04DX003 (ip), vehicle: other) was 90 % of control.

With `Cc1c2ccncc2c(C)c2c1[nH]c1ccccc12` the T/C (dose: 13.0 mg/kg/injection, schedule: Q04DX003 (ip), vehicle: water) was 112 % of control, the T/C (dose: 21.6 mg/kg/injection, schedule: Q04DX003 (ip), vehicle: water) was 104 % of control and 109 % of control and the T/C (dose: 36.0 mg/kg/injection, schedule: Q04DX003 (ip), vehicle: water) was 110 % of control and 117 % of control.

For `COc1cccc2c1C(=O)c1c(O)c3c(c(O)c1C2=O)C[C@@](O)(C(C)=O)C[C@@H]3OC1CC(N)C(O)C(C)O1` (stereo not given in full), the T/C [1] was 122 % of control, the T/C [2] was 114 % of control and the T/C [3] was 121 % of control. The T/C (dose: 8.0 mg/kg/injection, schedule: Q04DX003 (ip), vehicle: water) was 104 % of control and 107 % of control.

`COC(=O)[C@@]12OC[C@]34[C@H]([C@@H](O)[C@@H]1O)[C@@]1(C)CC(=O)C(O)=C(C)[C@@H]1C[C@H]3OC(=O)[C@H](OC(=O)/C=C(\C)C(C)C)[C@@H]24` was tested, and the T/C (dose: 0.65 mg/kg/injection, schedule: Q04DX003 (ip), vehicle: saline + alcohol) was 113 % of control, the T/C (dose: 1.08 mg/kg/injection, schedule: Q04DX003 (ip), vehicle: saline + alcohol) was 93 % of control and 97 % of control and the T/C (dose: 1.8 mg/kg/injection, schedule: Q04DX003 (ip), vehicle: saline + alcohol) was 86 % of control and 90 % of control.

In the case of `N[C@H](C(=O)O)[C@@H]1CC(Cl)=NO1`, the T/C (dose: 36.0 mg/kg/injection, schedule: Q04DX003 (ip), vehicle: saline) is reported as 122 % of control.

In the case of `COc1cccc2c1C(=O)c1c(O)c3c(c(O)c1C2=O)C[C@@](O)(C(C)=O)C[C@@H]3OC1CC(N(C)C)C(O)C(C)O1` (stereo not given in full), the T/C (dose: 3.46 mg/kg/injection, schedule: Q04DX003 (ip), vehicle: water) is reported as 114 % of control, the T/C (dose: 5.76 mg/kg/injection, schedule: Q04DX003 (ip), vehicle: water) is reported as 121 % of control and the T/C (dose: 9.6 mg/kg/injection, schedule: Q04DX003 (ip), vehicle: water) is reported as 113 % of control. The T/C (dose: 16.0 mg/kg/injection, schedule: Q04DX003 (ip), vehicle: water) was 104 % of control.

With `CO[C@H]1C[C@](C)(O)Cc2cc3c(c(O)c21)C(=O)c1c(O)cc2c(c1C3=O)O[C@@H]1O[C@@]2(C)[C@H](O)[C@@H](N(C)C)[C@@H]1O` the T/C (dose: 18.0 mg/kg/injection, schedule: Q04DX003 (ip), vehicle: lactate) was 112 % of control, the T/C (dose: 30.0 mg/kg/injection, schedule: Q04DX003 (ip), vehicle: lactate) was 116 % of control and the T/C (dose: 50.0 mg/kg/injection, schedule: Q04DX003 (ip), vehicle: lactate) was 94 % of control.

`O=P1(N(CCCl)CCCl)NCCCO1` (stereo not given) was tested, and the T/C (dose: 108.0 mg/kg/injection, schedule: Q01DX001 (ip), vehicle: saline) was 476 % of control and the T/C (dose: 180.0 mg/kg/injection, schedule: Q01DX001 (ip), vehicle: saline) was 475 % of control.

In the case of `C[n+]1ccc(Nc2ccc(NC(=O)c3ccc(Nc4cc[n+](C)c5ccc(N)cc45)cc3)cc2)cc1`, the T/C (dose: 7.2 mg/kg/injection, schedule: Q01DX009 (ip), vehicle: water) is reported as 163 % of control.

`COc1cc2c[n+](C)c3c4cc5c(cc4ccc3c2cc1OC)OCO5` was tested, and the T/C (dose: 28.8 mg/kg/injection, schedule: Q04DX003 (ip), vehicle: Klucel (hydroxypropylcellulose) (HPC)) was 123 % of control, the T/C (dose: 48.0 mg/kg/injection, schedule: Q04DX003 (ip), vehicle: Klucel (hydroxypropylcellulose) (HPC)) was 105 % of control and the T/C (dose: 55.0 mg/kg/injection, schedule: Q04DX003 (ip), vehicle: other) was 107 % of control. The T/C (dose: 80.0 mg/kg/injection, schedule: Q04DX003 (ip), vehicle: Klucel (hydroxypropylcellulose) (HPC)) was 124 % of control and the T/C (dose: 92.0 mg/kg/injection, schedule: Q04DX003 (ip), vehicle: other) was 106 % of control.

For `CC[C@]1(O)C[C@H](OC2CC(N(C)C)C(OC3CC(O)C(O)C(C)O3)C(C)O2)c2c(cc3c(c2O)C(=O)c2c(O)ccc(O)c2C3=O)[C@H]1C(=O)OC` (stereo not given in full), the T/C (dose: 3.46 mg/kg/injection, schedule: Q04DX003 (ip), vehicle: other) was 106 % of control, the T/C (dose: 5.76 mg/kg/injection, schedule: Q04DX003 (ip), vehicle: other) was 102 % of control and the T/C (dose: 9.6 mg/kg/injection, schedule: Q04DX003 (ip), vehicle: other) was 93 % of control.

With `COc1ccc(CC2C(=O)NC(C)C(=O)N(C)C3Cc4ccc(cc4)Oc4cc(ccc4O)CC(C(=O)NC(C)C(=O)NC(C)C(=O)N2C)N(C)C3=O)cc1` (stereo not given) the T/C (dose: 4.32 mg/kg/injection, schedule: Q04DX003 (ip), vehicle: other) was 109 % of control, the T/C (dose: 7.2 mg/kg/injection, schedule: Q04DX003 (ip), vehicle: other) was 94 % of control and the T/C (dose: 12.0 mg/kg/injection, schedule: Q04DX003 (ip), vehicle: other) was 88 % of control.

`CC1OC(OC2CC(O)(C(=O)CO)Cc3c(O)c4c(c(O)c32)C(=O)c2ccccc2C4=O)CC(N)C1O` (stereo not given) was tested, and the T/C (dose: 216.0 micrograms/kg/injection, schedule: Q04DX003 (ip), vehicle: water) was 100 % of control, the T/C (dose: 360.0 micrograms/kg/injection, schedule: Q04DX003 (ip), vehicle: water) was 102 % of control and the T/C (dose: 600.0 micrograms/kg/injection, schedule: Q04DX003 (ip), vehicle: water) was 101 % of control. The T/C (dose: 1000.0 micrograms/kg/injection, schedule: Q04DX003 (ip), vehicle: water) was 99 % of control.

With `NC(C/[N+]([O-])=N/O)C(=O)O` (stereo not given) the T/C (dose: 288.0 mg/kg/injection, schedule: Q04DX003 (ip), vehicle: sodium bicarbonate) was 159 % of control and the T/C (dose: 480.0 mg/kg/injection, schedule: Q04DX003 (ip), vehicle: sodium bicarbonate) was 154 % of control.

In the case of `CC1CC(C)(O)CC(C(O)CC2CC(=O)NC(=O)C2)C1=O` (stereo not given), the T/C [4] is reported as 120 % of control, the T/C (dose: 0.78 mg/kg/injection, schedule: Q04DX003 (ip), vehicle: saline) is reported as 124 % of control and the T/C (dose: 2.16 mg/kg/injection, schedule: Q04DX003 (ip), vehicle: saline) is reported as 91 % of control. For the same compound, the T/C [5] was 103 % of control, the T/C [6] was 112 % of control and the T/C [7] was 92 % of control.

In the case of `S=c1nc[nH]c2nc[nH]c12`, the T/C (dose: 43.2 mg/kg/injection, schedule: Q01DX009 (ip), vehicle: alkali diluted with saline) is reported as 100 % of control and the T/C (dose: 72.0 mg/kg/injection, schedule: Q01DX009 (ip), vehicle: alkali diluted with saline) is reported as 105 % of control.
